The text below walks through data of ChEMBL document CHEMBL3792304 (Eur J Med Chem, 2016).

SMILES strings stand for the structures.

A word on the EC50: it is the midpoint of the concentration-response curve. As a reminder, the CC50 is the concentration at which the toxic effect on the cells reaches its halfway point.

In series [1] the test system is Hepatitis C virus. The series can be described thus: Antiviral activity against HCV subtype 1b by replicon assay. In kind it is functional, organism-based, Hepacivirus hominis. The note with it: genotype 1b. Background: In antiviral work, replicon cells carry a viral genome segment that copies itself.
The nature of series [2]: Cytotoxicity against human Huh7ET cells expressing LucUbiNeo fusion protein measured after 4 hrs at 37 degC by MTT assay. In kind it is cell-based, Huh-7. For orientation: Tetrazolium dyes change colour on reduction, which living cells bring about.
The test system of series [3] is Hepatitis C virus. The series can be described thus: Antiviral activity against Hepatitis C virus genotype 1b infected in human Huh7ET cells expressing LucUbiNeo fusion protein measured after 2 days by luciferase Bright-Glo assay. The note with it: Huh-7, 48 h. In kind it is functional, organism-based, Hepacivirus hominis.
Series [4] in a line: Selectivity index, ratio of CC50 for human Huh7ET cells expressing LucUbiNeo fusion protein to EC50 for Hepatitis C virus genotype 1b infected in human […] cells. Type of series: toxicity, cell-based. The note with it: read-out: Ratio CC50/EC50.

Compound `CC(C)OC(=O)[C@H](C)NP(=O)(OC[C@H]1O[C@@H](n2ccc(=O)[nH]c2=O)[C@](C)(F)[C@@H]1O)Oc1ccccc1` (some centres not stated) displayed an EC50 in series [1] of 0.048 µM. In other words, the double-digit nanomolar range.

`Cn1c(=O)c(-c2c(Cl)cccc2Cl)cc2cnc(Nc3ccccc3)nc21`: the CC50 at 4 h in series [2] amounted to 0.9 µM. In addition, a half-maximal effect in series [3] (EC50) was put at 0.23 µM. Consider `Cn1c(=O)c(-c2ccccc2)cc2c(N)nc(Nc3ccccc3)nc21`, for which the CC50 at 4 h in series [2] was 23.5 µM. In addition, in series [3], it took 0.9 µM to reach a half-maximal effect (EC50). As for `Cn1c(=O)c(-c2c(Br)cccc2Br)cc2c(N)nc(Nc3ccccc3)nc21`, in series [2], the CC50 at 4 h was determined as 0.8 µM. The EC50 in series [3] amounted to 0.3 µM. For `Cn1c(=O)c(-c2c(F)cccc2C(F)(F)F)cc2c(N)nc(Nc3ccccc3)nc21`, half-maximal cytotoxicity in series [2] (CC50 at 4 h) was put at 6.3 µM. The compound also came in with an EC50 in series [3] of 2.8 µM.

Compound `O=C1Nc2nc(Nc3ccccc3)nc(On3nnc4ccccc43)c2CC1c1ccc(F)cc1` (configuration not stated) had a CC50 at 4 h in series [2] of 12.2 µM. Besides, the EC50 in series [3] is 1.28 µM. For the compound `O=C1Nc2nc(NCc3ccccc3)[nH]c(=O)c2CC1c1c(Cl)cccc1Cl` (configuration not stated), the midpoint of cytotoxicity in series [2], the CC50 at 4 h, lay at 69 µM. For the same compound, a half-maximal response in series [3] (EC50) required 9.6 µM. In the same order, the values of `Nc1nc(Nc2ccccc2)nc2[nH]c(=O)c(-c3c(F)cccc3F)cc12` are 2.4 µM and 17.5 µM. For `CCCCn1c(=O)c(-c2c(Cl)cccc2Cl)cc2c(N)nc(Nc3ccccc3)nc21`, the EC50 in series [3] came to 11.9 µM. In series [2], `O=C1Nc2nc(Nc3ccccc3)nc(On3nnc4ccccc43)c2CC1c1ccc(Cl)cc1Cl` (configuration not stated) had a CC50 at 4 h of 5.5 µM. In series [3], this compound registered an EC50 of 1.35 µM. In series [2], `Cn1c(=O)c(-c2c(F)cccc2F)cc2c(N)nc(Nc3ccccc3)nc21` gave a CC50 at 4 h of 10.4 µM. The midpoint of the response in series [3], the EC50, lay at 0.16 µM. `CSc1nc2c(c(=O)[nH]1)CC(Cc1ccccc1)C(=O)N2` (configuration not stated) gave a CC50 at 4 h in series [2] of 38.3 µM. The compound also yielded an EC50 in series [3] of 11.2 µM.

Turning to `COCCOc1nc(N)nc2c1CC(c1c(Cl)cccc1Cl)C(=O)N2` (configuration not stated), the CC50 at 4 h in series [2] turned out to be 65 µM. Also, the midpoint of the response in series [3], the EC50, lay at 22 µM.

In turn, `O=c1[nH]c2nc(Nc3ccccc3)[nH]c(=O)c2cc1-c1ccc(F)cc1` showed a CC50 at 4 h in series [2] of 13.5 µM. Besides, in series [3], the EC50 was found to be 0.034 µM. The selectivity ratio in series [4] stood at 397. `O=C1Nc2nc(Nc3ccccc3)[nH]c(=O)c2CC1c1c(F)cccc1F` (configuration not stated) gave a CC50 at 4 h in series [2] of 5.3 µM. In series [3], this compound gave a concentration giving a half-maximal response (EC50) of 0.027 µM. The selectivity ratio in series [4] was 196.

`COc1ccc(Nc2nc3[nH]c(=O)c(-c4ccc(F)cc4)cc3c(=O)[nH]2)cc1`: the CC50 at 4 h in series [2] amounted to 46 µM. This compound gave an EC50 in series [3] of 9.4 µM. Regarding `Cn1c(=O)c(-c2c(Cl)cccc2Cl)cc2c(N)nc(N)nc21`, half-maximal cytotoxicity in series [2] (CC50 at 4 h) was put at 120 µM. For the same compound, the EC50 in series [3] worked out at 16.7 µM. Regarding `CCCCCNc1nc(N)nc2c1cc(-c1ccc(F)cc1)c(=O)n2C`, in series [2], the CC50 at 4 h turned out to be 79.8 µM. In addition, the EC50 in series [3] was 20.9 µM. Consider `CCCOCCNc1nc(Nc2ccccc2)nc2c1cc(-c1c(Cl)cccc1Cl)c(=O)n2C`, for which the CC50 at 4 h in series [2] came to 84.7 µM. Also, in series [3], the EC50 was determined as 5.1 µM.

Take `CCCn1c(=O)c(-c2c(Cl)cccc2Cl)cc2c(N)nc(Nc3ccccc3)nc21`: the CC50 at 4 h in series [2] was 181 µM. Also, the response in series [3] was half-maximal at 1.4 µM (EC50). In the same order, the values of `CCCOCCNc1nc(Oc2ccccc2)nc2[nH]c(=O)c(-c3ccc(F)cc3)cc12` are 79.8 µM and 3.3 µM. Take `CCn1c(=O)c(-c2c(Cl)cccc2Cl)cc2c(N)nc(Nc3ccccc3)nc21`: a half-maximal response in series [3] (EC50) required 6.3 µM. Take `CCCOCCNc1nc(N)nc2c1cc(-c1ccc(F)cc1)c(=O)n2C`: the CC50 at 4 h in series [2] turned out to be 54.3 µM. For the same compound, the EC50 in series [3] is 4.7 µM.

On to `CCCOCCOc1nc(N)nc2c1cc(-c1c(Cl)cccc1Cl)c(=O)n2C`, for which the midpoint of cytotoxicity in series [2], the CC50 at 4 h, lay at 50.1 µM. Further, in series [3], the midpoint of the response, the EC50, lay at 10.4 µM. `CC(C)Cn1c(=O)c(-c2c(Cl)cccc2Cl)cc2c(N)nc(Nc3ccccc3)nc21` showed a CC50 at 4 h in series [2] of 185 µM. This compound had an EC50 in series [3] of 0.22 µM. Take `Nc1nc(Nc2ccccc2)nc2[nH]c(=O)c(-c3ccccc3)cc12`: in series [2], half-maximal cytotoxicity (CC50 at 4 h) was put at 13.8 µM. Besides, the EC50 in series [3] amounted to 0.49 µM. In the same order, the values of `CCCCCNc1nc(N)nc2[nH]c(=O)c(-c3c(Cl)cccc3Cl)cc12` are 11 µM and 3.2 µM.

`CCCOCCNc1nc(Nc2ccccc2)nc2c1CC(c1c(Cl)cccc1Cl)C(=O)N2` (configuration not stated) had a CC50 at 4 h in series [2] of 50.5 µM. In series [3], this compound came in with an EC50 of 12.4 µM.

Take `COCCn1c(=O)c(-c2c(Cl)cccc2Cl)cc2c(N)nc(Nc3ccccc3)nc21`: the CC50 at 4 h in series [2] amounted to 241 µM. The EC50 in series [3] was 0.99 µM. In the same order, the values of `Nc1nc(Nc2ccccc2)nc2[nH]c(=O)c(-c3c(Br)cccc3Br)cc12` are 166 µM and 7.7 µM. `Nc1nc(Nc2ccccc2)nc2c1cc(-c1c(Cl)cccc1Cl)c(=O)n2CCO` gave a CC50 at 4 h in series [2] of 29.3 µM. For the same compound, in series [3], the EC50 came to 2.3 µM. The compound `CCCOCCNc1nc(N)nc2[nH]c(=O)c(-c3ccc(F)cc3)cc12` returned a CC50 at 4 h in series [2] of 130 µM. The EC50 in series [3] turned out to be 2.1 µM. `O=C1Nc2nc(Oc3ccccc3)nc(On3nnc4ccccc43)c2CC1c1ccc(F)cc1` (configuration not stated) returned a CC50 at 4 h in series [2] of 62.7 µM. Moreover, the EC50 in series [3] stood at 18.6 µM. Regarding `Cn1c(=O)c(-c2ccc(F)cc2)cc2c(N3CCCC3)nc(N)nc21`, in series [2], the CC50 at 4 h came to 111 µM. Besides, the EC50 in series [3] was 10.5 µM.
